pIC50: −log10 of the molar value.
Columns and labels:
MET (human) = MET (human) (Homo sapiens, UniProt P08581); assay: MET (human) AlphaScreen kinase assay, Km of ATP; format: biochemical; settings: AlphaScreen, Km of ATP; read-out: Met biochemical IC50
Protocol: (§1) Someone skilled in the art will appreciate that a variety of assay formats may be used to determine the activity of the compounds of this invention. For example, AlphaScreen (Amplified Luminescent Proximity Homogeneous Assay) technology was used with the kinases described below. Assay ATP concentrations for individual kinases are included in the text.
Desired compound is added in a final concentration of 1% DMSO with control being vehicle of DMSO alone. MET is diluted to the optimized concentration (optimized on a lot-by-lot basis) in an enzyme diluent buffer (50 mM Tris pH=7.4, 1% glycerol, 0.03% Brij35, 0.24 mM EGTA, 1 mM DTT, and 0.003% BSA). Enzyme is added to initiate the reaction and incubated for 60 min at RT. In subdued light, appropriate amount of PT66 donor and acceptor beads (diluted 1:260 from manufacturer's provision in a 25 mM Tris HCl (pH=7.5), 400 mM NaCl, 100 mM EDTA, 0.3% BSA buffer) are added to the wells. The plates, incubated for 1 h, are read on an AlphaQuest plate reader

RON (human) = RON (human) (Homo sapiens, UniProt Q04912); assay: RON (human) AlphaScreen kinase assay, Km of ATP; format: biochemical; settings: AlphaScreen, Km of ATP; read-out: RON biochemical IC50
RON (human), sequence (Q04912 25-1400): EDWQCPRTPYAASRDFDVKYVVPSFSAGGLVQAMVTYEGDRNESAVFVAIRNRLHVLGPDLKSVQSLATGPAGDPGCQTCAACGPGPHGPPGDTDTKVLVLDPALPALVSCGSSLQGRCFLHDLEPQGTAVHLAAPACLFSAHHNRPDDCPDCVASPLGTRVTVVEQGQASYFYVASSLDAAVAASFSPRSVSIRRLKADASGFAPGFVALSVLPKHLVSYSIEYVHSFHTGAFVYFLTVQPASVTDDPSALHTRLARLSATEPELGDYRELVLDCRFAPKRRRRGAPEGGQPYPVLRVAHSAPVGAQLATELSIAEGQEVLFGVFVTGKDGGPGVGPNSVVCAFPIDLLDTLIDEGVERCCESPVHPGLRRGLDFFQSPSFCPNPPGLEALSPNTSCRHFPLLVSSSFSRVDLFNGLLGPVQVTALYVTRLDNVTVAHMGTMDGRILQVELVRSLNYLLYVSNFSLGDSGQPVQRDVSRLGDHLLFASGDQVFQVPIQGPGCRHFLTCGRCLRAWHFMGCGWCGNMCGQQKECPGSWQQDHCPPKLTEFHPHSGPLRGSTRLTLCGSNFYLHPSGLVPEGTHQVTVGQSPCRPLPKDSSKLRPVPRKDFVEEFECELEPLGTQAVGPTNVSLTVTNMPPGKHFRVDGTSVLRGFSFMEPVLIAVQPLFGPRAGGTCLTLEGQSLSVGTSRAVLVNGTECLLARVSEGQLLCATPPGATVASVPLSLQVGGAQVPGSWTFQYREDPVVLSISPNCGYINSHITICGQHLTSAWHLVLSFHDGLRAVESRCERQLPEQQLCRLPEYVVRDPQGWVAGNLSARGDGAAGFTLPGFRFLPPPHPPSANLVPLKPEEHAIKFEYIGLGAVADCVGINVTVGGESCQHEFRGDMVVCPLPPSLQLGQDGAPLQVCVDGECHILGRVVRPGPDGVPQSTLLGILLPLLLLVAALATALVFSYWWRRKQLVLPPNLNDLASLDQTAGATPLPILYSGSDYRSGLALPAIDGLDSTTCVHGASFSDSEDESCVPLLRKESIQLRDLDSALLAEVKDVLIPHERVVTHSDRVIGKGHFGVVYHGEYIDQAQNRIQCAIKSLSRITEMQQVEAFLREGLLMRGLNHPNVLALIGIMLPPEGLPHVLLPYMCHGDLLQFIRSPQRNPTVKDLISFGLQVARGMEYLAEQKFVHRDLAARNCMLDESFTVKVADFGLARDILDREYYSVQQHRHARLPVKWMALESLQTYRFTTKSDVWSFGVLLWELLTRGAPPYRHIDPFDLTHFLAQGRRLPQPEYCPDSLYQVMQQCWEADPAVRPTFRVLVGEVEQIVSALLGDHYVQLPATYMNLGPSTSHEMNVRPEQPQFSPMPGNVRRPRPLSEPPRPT
Protocol: as §1
Desired compound is added in a final concentration of 1% DMSO with control being vehicle of DMSO alone. […] Enzyme is added to initiate the reaction and incubated for 30 min at RT. In subdued light, appropriate amount of PT66 donor and acceptor beads (diluted 1:260 from manufacturer's provision in a 25 mM Tris HCl (pH=7.5), 200 mM NaCl, 100 mM EDTA, 0.3% BSA buffer) are added to the wells. The plates, incubated for 1 h, are read on an AlphaQuest plate reader.

MET (human), sequence (P08581 25-1390): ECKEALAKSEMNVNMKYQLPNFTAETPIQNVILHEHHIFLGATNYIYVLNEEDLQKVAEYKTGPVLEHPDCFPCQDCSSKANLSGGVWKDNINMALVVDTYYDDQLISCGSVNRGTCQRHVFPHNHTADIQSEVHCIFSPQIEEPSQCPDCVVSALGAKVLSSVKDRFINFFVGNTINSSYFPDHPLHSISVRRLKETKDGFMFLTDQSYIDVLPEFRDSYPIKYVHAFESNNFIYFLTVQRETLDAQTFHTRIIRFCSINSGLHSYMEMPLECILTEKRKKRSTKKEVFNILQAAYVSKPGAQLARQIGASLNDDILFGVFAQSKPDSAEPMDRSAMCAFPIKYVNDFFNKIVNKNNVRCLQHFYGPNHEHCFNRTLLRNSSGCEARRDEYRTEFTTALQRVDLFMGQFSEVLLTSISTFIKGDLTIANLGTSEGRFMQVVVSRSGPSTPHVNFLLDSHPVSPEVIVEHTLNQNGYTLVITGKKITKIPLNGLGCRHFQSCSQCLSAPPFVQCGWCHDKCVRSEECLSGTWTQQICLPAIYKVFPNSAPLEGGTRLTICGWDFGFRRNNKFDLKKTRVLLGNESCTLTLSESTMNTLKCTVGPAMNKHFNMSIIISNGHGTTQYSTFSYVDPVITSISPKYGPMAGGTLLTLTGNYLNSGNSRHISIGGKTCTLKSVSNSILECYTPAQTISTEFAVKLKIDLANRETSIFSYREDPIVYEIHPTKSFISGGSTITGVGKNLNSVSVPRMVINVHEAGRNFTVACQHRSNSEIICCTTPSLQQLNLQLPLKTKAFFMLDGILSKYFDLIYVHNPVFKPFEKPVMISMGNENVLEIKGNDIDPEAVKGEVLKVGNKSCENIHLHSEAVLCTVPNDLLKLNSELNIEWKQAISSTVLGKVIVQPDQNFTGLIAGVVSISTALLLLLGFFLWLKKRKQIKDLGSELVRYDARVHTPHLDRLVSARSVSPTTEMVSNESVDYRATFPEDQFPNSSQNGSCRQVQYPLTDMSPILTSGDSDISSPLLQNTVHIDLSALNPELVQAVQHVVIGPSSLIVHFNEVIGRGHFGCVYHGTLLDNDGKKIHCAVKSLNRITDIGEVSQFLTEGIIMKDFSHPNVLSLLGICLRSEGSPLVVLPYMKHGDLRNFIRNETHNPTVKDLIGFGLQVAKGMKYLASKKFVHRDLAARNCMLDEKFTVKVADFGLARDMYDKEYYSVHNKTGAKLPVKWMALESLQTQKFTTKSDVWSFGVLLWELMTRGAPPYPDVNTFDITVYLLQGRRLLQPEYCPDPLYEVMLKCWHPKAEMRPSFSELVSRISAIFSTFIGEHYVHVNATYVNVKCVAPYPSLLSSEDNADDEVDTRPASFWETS

SMILES: C[C@@H](Oc1c(N)ncc2c(C3=CCN(C(=O)N4CCN(C(C)(C)C)CC4)CC3)coc12)c1c(Cl)ccc(F)c1Cl [Example 29, (4-{6-Amino-7-[(R)-1-(2,6-dichloro-3-fluorophenyl)-ethoxy]-furo[3,2-c]pyridin-3-yl}-3,6-dihydro-2H-pyridin-1-yl)-(4-tert-butylpiperazin-1-yl)-methanone]
- pIC50 (MET (human)): > 6.30
- pIC50 (RON (human)): > 6.30

SMILES: C[C@@H]1CN(C(=O)N2CC=C(c3coc4c(O[C@H](C)c5c(Cl)ccc(F)c5Cl)c(N)ncc34)CC2)C[C@H](C)O1 [Example 30, (4-{6-Amino-7-[(R)-1-(2,6-dichloro-3-fluorophenyl)-ethoxy]-furo[3,2-c]pyridin-3-yl}-3,6-dihydro-2H-pyridin-1-yl)-((2R,6S)-2,6-dimethylmorpholin-4-yl)-methanone]
- pIC50 (MET (human)): 5.30 to 6.30
- pIC50 (RON (human)): 5.30 to 6.30

SMILES: C[C@@H](Oc1c(N)ncc2c(C3=CCN(C(=O)N4CCOCC4)CC3)coc12)c1c(Cl)ccc(F)c1Cl [Example 31, (4-{6-Amino-7-[(R)-1-(2,6-dichloro-3-fluorophenyl)-ethoxy]-furo[3,2-c]pyridin-3-yl}-3,6-dihydro-2H-pyridin-1-yl)-morpholin-4-ylmethanone]
- pIC50 (MET (human)): 5.30 to 6.30
- pIC50 (RON (human)): 5.30 to 6.30

SMILES: C[C@@H](Oc1c(N)ncc2c(C3=CCN(C(=O)N4CCCCC4)CC3)coc12)c1c(Cl)ccc(F)c1Cl [Example 32, (4-{6-Amino-7-[(R)-1-(2,6-dichloro-3-fluorophenyl)-ethoxy]-furo[3,2-c]pyridin-3-yl}-3,6-dihydro-2H-pyridin-1-yl)-piperidin-1-ylmethanone]
- pIC50 (MET (human)): 5.30 to 6.30
- pIC50 (RON (human)): 5.30 to 6.30

SMILES: C[C@@H](Oc1c(N)ncc2c(C3=CCN(C(=O)N4CCNCC4)CC3)coc12)c1c(Cl)ccc(F)c1Cl [Example 33, (4-{6-Amino-7-[(R)-1-(2,6-dichloro-3-fluorophenyl)-ethoxy]-furo[3,2-c]pyridin-3-yl}-3,6-dihydro-2H-pyridin-1-yl)-piperazin-1-ylmethanone]
- pIC50 (MET (human)): > 6.30
- pIC50 (RON (human)): > 6.30

SMILES: C[C@@H](Oc1c(N)ncc2c(C3=CCN(C(N)=O)CC3)coc12)c1c(Cl)ccc(F)c1Cl [Example 34, 4-{6-Amino-7-[(R)-1-(2,6-dichloro-3-fluorophenyl)ethoxy]-furo[3,2-c]pyridin-3-yl}-3,6-dihydro-2H-pyridine-1-carboxamide]
- pIC50 (MET (human)): > 6.30
- pIC50 (RON (human)): > 6.30

SMILES: CNc1ncc2c(C3=CCN(C)CC3)coc2c1O[C@H](C)c1c(Cl)ccc(F)c1Cl [Example 36, [7-[(R)-1-(2,6-Dichloro-3-fluorophenyl)-ethoxy]-3-(1-methyl-1,2,3,6-tetrahydropyridin-4-yl)-furo[3,2-c]pyridin-6-yl]-methylamine]
- pIC50 (MET (human)): > 6.30
- pIC50 (RON (human)): > 6.30

SMILES: C[C@@H](Oc1c(N)ncc2c(C3=CCN(C)CC3)coc12)c1c(Cl)ccc(F)c1Cl [Example 37, 7-[(R)-1-(2,6-Dichloro-3-fluorophenyl)-ethoxy]-3-(1-methyl-1,2,3,6-tetrahydropyridin-4-yl)-furo[3,2-c]pyridin-6-ylamine]
- pIC50 (MET (human)): > 6.30
- pIC50 (RON (human)): > 6.30

SMILES: C[C@@H](Oc1c(N)ncc2c(C3=CCN(CC4CCCCC4)CC3)coc12)c1c(Cl)ccc(F)c1Cl [Example 38, 3-(1-Cyclohexylmethyl-1,2,3,6-tetrahydropyridin-4-yl)-7-[(R)-1-(2,6-dichloro-3-fluorophenyl)-ethoxy]-furo[3,2-c]pyridin-6-ylamine]
- pIC50 (MET (human)): > 6.30
- pIC50 (RON (human)): > 6.30

SMILES: C[C@@H](Oc1c(N)ncc2c(C3=CCN(Cc4ccccc4)CC3)coc12)c1c(Cl)ccc(F)c1Cl [Example 39, 3-(1-Benzyl-1,2,3,6-tetrahydropyridin-4-yl)-7-[(R)-1-(2,6-dichloro-3-fluorophenyl)-ethoxy]-furo[3,2-c]pyridin-6-ylamine]
- pIC50 (MET (human)): > 6.30
- pIC50 (RON (human)): 5.30 to 6.30

SMILES: CCN1CC=C(c2coc3c(O[C@H](C)c4c(Cl)ccc(F)c4Cl)c(N)ncc23)CC1 [Example 40, 7-[(R)-1-(2,6-Dichloro-3-fluorophenyl)-ethoxy]-3-(1-ethyl-1,2,3,6-tetrahydropyridin-4-yl)-furo[3,2-c]pyridin-6-ylamine]
- pIC50 (MET (human)): > 6.30
- pIC50 (RON (human)): > 6.30

SMILES: CC(C)CN1CC=C(c2coc3c(O[C@H](C)c4c(Cl)ccc(F)c4Cl)c(N)ncc23)CC1 [Example 41, 7-[(R)-1-(2,6-Dichloro-3-fluorophenyl)-ethoxy]-3-(1-isobutyl-1,2,3,6-tetrahydropyridin-4-yl)-furo[3,2-c]pyridin-6-ylamine]
- pIC50 (MET (human)): > 6.30
- pIC50 (RON (human)): > 6.30

SMILES: CCCN1CC=C(c2coc3c(O[C@H](C)c4c(Cl)ccc(F)c4Cl)c(N)ncc23)CC1 [Example 42, 7-[(R)-1-(2,6-Dichloro-3-fluorophenyl)-ethoxy]-3-(1-propyl-1,2,3,6-tetrahydropyridin-4-yl)-furo[3,2-c]pyridin-6-ylamine]
- pIC50 (MET (human)): > 6.30
- pIC50 (RON (human)): > 6.30

SMILES: C[C@@H](Oc1c(N)ncc2c(C3=CCN(CCN)CC3)coc12)c1c(Cl)ccc(F)c1Cl [Example 43, 3-[1-(2-Aminoethyl)-1,2,3,6-tetrahydropyridin-4-yl]-7-[(R)-1-(2,6-dichloro-3-fluorophenyl)ethoxy]-furo[3,2-c]pyridin-6-ylamine]
- pIC50 (MET (human)): > 6.30
- pIC50 (RON (human)): > 6.30

SMILES: C[C@@H](Oc1c(N)ncc2c(C3=CCN(C4CCC4)CC3)coc12)c1c(Cl)ccc(F)c1Cl [Example 44, 3-(1-Cyclobutyl-1,2,3,6-tetrahydropyridin-4-yl)-7-[(R)-1-(2,6-dichloro-3-fluorophenyl)-ethoxy]-furo[3,2-c]pyridin-6-ylamine]
- pIC50 (MET (human)): > 6.30
- pIC50 (RON (human)): > 6.30

SMILES: CC(C)N1CC=C(c2coc3c(O[C@H](C)c4c(Cl)ccc(F)c4Cl)c(N)ncc23)CC1 [Example 45, 7-[(R)-1-(2,6-Dichloro-3-fluorophenyl)-ethoxy]-3-(1-isopropyl-1,2,3,6-tetrahydropyridin-4-yl)-furo[3,2-c]pyridin-6-ylamine]
- pIC50 (MET (human)): > 6.30
- pIC50 (RON (human)): > 6.30

SMILES: C[C@@H](Oc1c(N)ncc2c(C3=CCN(S(C)(=O)=O)CC3)coc12)c1c(Cl)ccc(F)c1Cl [Example 46, 7-[(R)-1-(2,6-Dichloro-3-fluorophenyl)-ethoxy]-3-(1-methanesulfonyl-1,2,3,6-tetrahydropyridin-4-yl)-furo[3,2-c]pyridin-6-ylamine]
- pIC50 (MET (human)): > 6.30
- pIC50 (RON (human)): 5.30 to 6.30

SMILES: CCS(=O)(=O)N1CC=C(c2coc3c(O[C@H](C)c4c(Cl)ccc(F)c4Cl)c(N)ncc23)CC1 [Example 47, 7-[(R)-1-(2,6-Dichloro-3-fluorophenyl)-ethoxy]-3-(1-ethanesulfonyl-1,2,3,6-tetrahydropyridin-4-yl)-furo[3,2-c]pyridin-6-ylamine]
- pIC50 (MET (human)): 5.30 to 6.30
- pIC50 (RON (human)): 5.30 to 6.30

SMILES: C[C@@H](Oc1c(N)ncc2c(C3=CCN(S(=O)(=O)C4CC4)CC3)coc12)c1c(Cl)ccc(F)c1Cl [Example 48, 3-(1-Cyclopropanesulfonyl-1,2,3,6-tetrahydropyridin-4-yl)-7-[(R)-1-(2,6-dichloro-3-fluorophenyl)-ethoxy]-furo[3,2-c]pyridin-6-ylamine]
- pIC50 (MET (human)): > 6.30
- pIC50 (RON (human)): 5.30 to 6.30

SMILES: C[C@@H](Oc1c(N)ncc2c(C3=CCN(S(=O)(=O)c4ccccc4)CC3)coc12)c1c(Cl)ccc(F)c1Cl [Example 49, 3-(1-Benzenesulfonyl-1,2,3,6-tetrahydropyridin-4-yl)-7-[(R)-1-(2,6-dichloro-3-fluorophenyl)-ethoxy]-furo[3,2-c]pyridin-6-ylamine]
- pIC50 (MET (human)): 5.30 to 6.30
- pIC50 (RON (human)): 5.30 to 6.30

SMILES: CCOC(=O)N1CC=C(c2coc3c(O[C@H](C)c4c(Cl)ccc(F)c4Cl)c(N)ncc23)CC1 [Example 51, 4-{6-Amino-7-[(R)-1-(2,6-dichloro-3-fluorophenyl)-ethoxy]-furo[3,2-c]pyridin-3-yl}-3,6-dihydro-2H-pyridine-1-carboxylic acid ethyl ester]
- pIC50 (MET (human)): 5.30 to 6.30
- pIC50 (RON (human)): 5.30 to 6.30

SMILES: CCCOC(=O)N1CC=C(c2coc3c(O[C@H](C)c4c(Cl)ccc(F)c4Cl)c(N)ncc23)CC1 [Example 52, 4-{6-Amino-7-[(R)-1-(2,6-dichloro-3-fluorophenyl)-ethoxy]-furo[3,2-c]pyridin-3-yl}-3,6-dihydro-2H-pyridine-1-carboxylic acid propyl ester]
- pIC50 (MET (human)): 5.30 to 6.30
- pIC50 (RON (human)): 5.30 to 6.30

SMILES: CC(C)OC(=O)N1CC=C(c2coc3c(O[C@H](C)c4c(Cl)ccc(F)c4Cl)c(N)ncc23)CC1 [Example 53, 4-{6-Amino-7-[(R)-1-(2,6-dichloro-3-fluorophenyl)-ethoxy]-furo[3,2-c]pyridin-3-yl}-3,6-dihydro-2H-pyridine-1-carboxylic acid isopropyl ester]
- pIC50 (MET (human)): 5.30 to 6.30
- pIC50 (RON (human)): 5.30 to 6.30

SMILES: C[C@@H](Oc1c(N)ncc2c(C3=CCN(C(=O)OC4CCCC4)CC3)coc12)c1c(Cl)ccc(F)c1Cl [Example 54, 4-{6-Amino-7-[(R)-1-(2,6-dichloro-3-fluorophenyl)-ethoxy]-furo[3,2-c]pyridin-3-yl}-3,6-dihydro-2H-pyridine-1-carboxylic acid cyclopentyl ester]
- pIC50 (MET (human)): 5.30 to 6.30
- pIC50 (RON (human)): 5.30 to 6.30

From patent US8022206B2 (OSI Pharmaceuticals, LLC, priority 2008, dated 2011)
